Counter-ions that a name gives are not always drawn. Residues, ends and D or L forms follow the SMILES beside them. *: point of attachment. Tfa = O=C(C(F)(F)F)*; NHPh = c1ccc(N*)cc1
SMILES | melting point
COC(=O)C1C(=O)Nc2cccc(C(F)(F)F)c2CC1c1ccccc1OC (stereo not drawn) | 214 to 216 °C
N#CCCNC(=O)c1cccc(-c2ccc3c(c2)C(c2cc(Cl)ccc2Cl)CC3)c1 (stereo not drawn) | 135 to 136 °C
CCOC(=O)c1ccc(COc2cccc(O)c2C=O)cc1 | 105 to 107 °C
COC(=O)COc1ccc([C@H]2c3ccc(O)cc3OC[C@H]2c2ccccc2)cc1 (racemic) | 133 to 134 °C
Cc1ccccc1CC(=O)N1CCN(c2nccs2)CC1 | 110 to 111 °C
CC(C)Oc1ccccc1N1CCN(Cc2cccc(CC3NC(=O)NC3=O)c2)CC1 (stereo not drawn) | 178 to 181 °C
Cc1ccc2c(c1)N(CC(=O)c1ccccc1C)C(=O)C(NC(=O)Nc1ccc(C)c(C(=O)O)c1)CN2C(=O)c1cccs1 (stereo not drawn) | 192 to 195 °C
CC[C@H](C)[C@@H](CO)NS(=O)(=O)c1ccc(Cl)c(N)c1 | 89 to 92 °C
CN1CC2=C(n3cncc3C1)S(=O)C=C2 (stereo not drawn) | 160 to 163 °C
COc1ccc(OC)c(CCc2ccc3c(c2)C(=O)NCN3)c1 | 138 to 140 °C
Cc1csc2c(CSc3nc4ccccc4[nH]3)nccc12 | 160 to 162 °C
CC1(C)Oc2ccc(C#N)cc2[C@@H](NC(=O)Nc2cccc(-c3ncno3)c2)[C@@H]1O | 168 to 170 °C
CCCN1Cc2c(ncnc2C2C(=O)Nc3ccc(C#N)cc32)N1 (stereo not drawn) | > 300 °C
COc1ccc(C(=NOC(C)=O)c2ccccc2F)c(O)c1Cl | 125 to 128 °C
CC1(C)CCC(C)(C)c2c(O)cc(Br)cc21 | 93 °C
N#Cc1ccc(CCCCCC(=O)O)cc1 | 61 to 62 °C
O=C(Nc1ccc(C(=O)N2CCCc3cc(F)ccc32)cc1)c1cc(Cl)cc(Cl)c1 | 206 °C
O=C(NC(=O)c1c(F)cccc1F)Nc1cc(F)c(C(F)(F)F)c(F)c1 | 231 °C
CCC(=O)c1nc(C(C)(C)C)c(O)c(C(C)(C)C)n1 | 123 to 125 °C
CON1C=C2N=NC3=C(N2C1)N(C1CCCCC1)CC(C)=C3 | 174 to 177 °C
CCOC(=O)C1=C(C)NC2(C)ON=C(C)C2C1c1ccccc1[N+](=O)[O-] (stereo not drawn) | 212 °C
O=c1c2c(Cl)cc(Cl)cc2n(Cc2ccccc2)c(=O)n1CCc1ccccc1 | 169 to 171 °C
Cc1ccsc1C(=O)Nc1ccc(C(=O)N2Cc3cccn3Cc3ccccc32)cc1 | 232 to 235 °C

SMILES | melting point
COCCNc1cc(-c2c(-c3cccc(C)c3)nc3cccnn23)ccn1 | 99 to 100 °C
CCCCC1NC(C(=O)O)Cc2c1[nH]c1ccccc21 (stereo not drawn) | 204 to 205 °C
N#Cc1cnn(-c2ccc(CBr)cc2)n1 | 147 to 148 °C
Cc1ccc([C@@H](O)C(F)(F)F)cc1 | 44.2 °C
COc1ccccc1N1CCN(CCC(C#N)(c2ccccc2)c2ccccc2[N+](=O)[O-])CC1 (stereo not drawn) | 61 to 64 °C
COCCc1nc2c(N)nc3cc(-c4cccnc4)ccc3c2n1CC(C)(C)O | 158 to 160 °C
CC(=O)c1cccc(Nc2nnc(-c3cccc(Oc4cccc(C(F)(F)F)c4)c3)s2)c1 | 130 to 133 °C
CC1(C)CNS(=O)(=O)N1 | 80 to 83 °C
CCOC(=O)c1cn(C2CC2)c2oc(CN3CCOCC3)cc2c1=O | 196 to 198 °C
COc1nc2ccccc2cc1NC(=S)N1CCN(c2cc(F)cc(F)c2)CC1 | 140 to 142 °C
CC(C)(C)[Si](OC1CCC(O)C1COC(c1ccccc1)(c1ccccc1)c1ccccc1)(c1ccccc1)c1ccccc1 (stereo not drawn) | 95.6 to 97 °C
OC[C@H]1OC[C@@H](n2c(NC3CC3)nc3cc(Cl)c(Cl)cc32)C[C@@H]1O | 98 to 99 °C
O=C1c2cccc(O)c2C(=O)N1CC(=O)N1c2ccccc2N(Cc2ccccc2)C(=O)[C@H]2CCC[C@H]21 (relative stereo) | 272 °C
CC(C(N)=O)c1ccc2c(c1)C(=O)Cc1cc([N+](=O)[O-])ccc1S2 (stereo not drawn) | 207 to 209 °C
O=C(O)C(OCc1ccc(Cl)cc1)(C(F)(F)F)C(F)(F)F | 98 to 99 °C
O=C(O)c1cc(Cl)ccc1Nc1ccc(OCc2ccccc2)cc1 | 189 to 191 °C
C[C@H](NC(=O)C(F)(F)F)C(=O)N1CCC[C@H]1C(=O)Nc1ccccc1 (Tfa-Ala-Pro-NHPh) | 204 to 207 °C
CCCCCCCCc1ccc(N(c2ccc(CCCCCCCC)cc2)C2(c3ccc(N(CC)CC)cc3C)OC(=O)c3nccnc32)cc1 (stereo not drawn) | 180 to 187 °C
Cc1ccc(Oc2nc3ccc(N=C=S)cc3s2)cc1 | 121 to 123 °C
O=C(Oc1ccccc1)N1CCc2[nH]c3c(cnc4cc(Cl)ccc43)c2C1 | > 250 °C
O=c1nc(-c2cccc(CN3CCC(O)(c4ccc(Cl)cc4)CC3)n2)sc2ccccc12 | 151 to 153 °C
CC(Oc1ccc(-c2ccc(Cl)cc2)cc1)(C(N)=O)C(F)(F)F (stereo not drawn) | 141 to 142 °C
CCCCc1oc2ccccc2c1C(=O)Nc1ccc2cc(OCC#N)ccc2c1 | 122 to 124 °C

SMILES | melting point
CNS(=O)(=O)Oc1ccc2c(c1)C(C)(C)C(O)O2 (stereo not drawn) | 111 to 112 °C
COC(=O)c1ccc(CCC(C)(C)NCC(O)c2cc3ccccc3o2)cc1 (stereo not drawn) | 141 to 145 °C
Cc1nn(CC(F)CO)c(-c2ccc(F)cc2)c1-c1ccc2c(c1)NC(=O)CO2 (stereo not drawn) | 193 to 196 °C
Cc1ccc(C2c3c(C)c(N4Cc5cc(Cl)c(Cl)cc5C4)c(C)c(C)c3OC2(C)C)cc1 (stereo not drawn) | 201 to 203 °C
CN(C)N=Nc1cc([N+](=O)[O-])sc1C(N)=O | 240 to 246 °C
Cc1ccc(NC(=O)N(C)Cc2cccc3c2C(=O)N(C2CCC(=O)NC2=O)C3=O)cc1C (stereo not drawn) | 202 to 204 °C
CC(C)(C)OC(=O)C(CCC(N)=O)N1Cc2c(OCc3ccc(CN4C5CCC4COC5)cc3)cccc2C1=O (stereo not drawn) | 243 to 245 °C
Cc1cccc(Nc2cc(Nc3cccc(OCC4CO4)c3)ncn2)c1 (stereo not drawn) | 143 to 145 °C
Cc1c(C)c2c(c([N+](=O)[O-])c1C)OC(C)(C)C2 | 100 to 101 °C
Cc1nc(-c2ccccc2F)cn1-c1ccc(COc2ncc(C(F)(F)F)cc2Cl)cc1 | 109 °C
O=c1c(-c2ccccc2)c(-c2ccccc2)oc2cc(OCC3CO3)ccc12 (stereo not drawn) | 143 to 145 °C
N#Cc1c(-c2cccc(N)c2)cc(-c2ccccc2O)nc1NC(=O)c1ccsc1 | 257 to 260 °C
O=Ic1ccc(Cl)cc1[N+](=O)[O-] | 118 °C
N#Cc1ccc(N2C(=O)C3=CCCN3C2=O)c2ccccc12 | 230 to 232 °C
O=C(OCC(O)CO)c1cc(F)ccc1Nc1ccnc2c(C(F)(F)F)cccc12 (stereo not drawn) | 197 to 198 °C
COC(=O)[C@H](Cc1ccc(-c2c(C)cc(C(F)(F)F)n(C)c2=O)cc1)NC(=O)c1c(Cl)cccc1Cl | 170 to 173 °C
CC1CCc2ccc(Cl)c3c(=O)c(C(=O)O)cn1c23 (stereo not drawn) | 220 to 222 °C
N#CCc1ccc(CN2CCN(c3ccc(F)cc3)CC2)cc1 | 111 to 113 °C
O=C(O)CCCCC(=O)Oc1ccc([N+](=O)[O-])cc1 | 104 to 105 °C
O=C1NC(=S)SC1=Cc1ccccc1C(=O)O | 276 to 278 °C
CC1=Nc2ccccc2N(Cc2ccccc2)C(=O)C1Cc1ccccc1 (stereo not drawn) | 140 to 141 °C
CN(CC1CC=CCC1)c1ncnc2c1ncn2C1OC(CO)C(O)C1O (stereo not drawn) | 154 to 156 °C
